Drawing on patent US10610520B2, “Heterocyclic compound” (Takeda Pharmaceutical Company Limited, priority 2016, dated 2020), this text covers inhibition for 14 compounds.

For this experiment, the target named is T1, His-hMAGL (recombinant polyhistidine tagged human MAGL protein) (Homo sapiens, UniProt Q99685).
T1 construct: made in house; host or cells: E. coli BL21(DE3)
T1 sequence (Q99685 1-303): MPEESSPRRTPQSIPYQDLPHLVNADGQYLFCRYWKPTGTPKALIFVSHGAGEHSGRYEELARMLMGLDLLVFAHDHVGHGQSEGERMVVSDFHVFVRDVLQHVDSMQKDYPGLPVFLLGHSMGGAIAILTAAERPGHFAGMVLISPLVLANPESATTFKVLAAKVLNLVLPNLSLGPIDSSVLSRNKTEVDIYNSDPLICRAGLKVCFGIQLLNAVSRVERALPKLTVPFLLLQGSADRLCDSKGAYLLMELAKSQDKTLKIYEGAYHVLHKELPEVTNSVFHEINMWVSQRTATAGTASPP
Briefly: Measurement of MAGL inhibitory activity (arachidonic acid production from 2-arachidonylglycerol, RapidFire-mass spectrometry). In kind it is biochemical. Particulars: MAGL inhibitory rate, test compound 10 μM, 60 min preincubation, 2-arachidonylglycerol substrate. The method, boiled down: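 Arachidonic acid formed was quantified by online solid-phase extraction and triple-quadrupole MS in negative SRM mode against a d8 internal standard. Reaction: recombinant His-hMAGL (7.5 ng/mL, pH 7.5 Tris buffer with Triton X-100 and BSA) plus 2-AG (5 μL of 150 μM stock) for 10 min at room temperature, quenched with 2% formic acid. Percent inhibition corrected for enzyme-free background.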

A word on the inhibition: it is the change of the read-out against control, counted positive when it falls. For `O=C1COCC2(CN(C(=O)N3CCC(COc4ccc(F)cc4Cl)CC3)C2)N1` [Example 243, 2-((4-((2-chloro-4-fluorophenoxy)methyl)piperidin-1-yl)carbonyl)-8-oxa-2,5-diazaspiro[3.5]nonan-6-one], the inhibition at 10 µM came to 100%.
For the compound `O=C1CCC2(CN(C(=O)N3CCC(C(F)(F)c4ccc(Cl)cc4Cl)CC3)C2)N1` [Example 244, 2-((4-((2,4-dichlorophenyl)(difluoro)methyl)piperidin-1-yl)carbonyl)-2,5-diazaspiro[3.4]octan-6-one], the inhibition at 10 µM came out at 100%.
The same measure for `O=C1CCC2(CN(C(=O)c3sc4cc(Br)ccc4c3C3CC3)C2)N1` [Example 245, 2-((6-bromo-3-cyclopropyl-1-benzothiophen-2-yl)carbonyl)-2,5-diazaspiro[3.4]octan-6-one]: 98%.
The same measure for `O=C1CCC2(CN(C(=O)c3sc(-c4cccc(C5(C(F)(F)F)CC5)c4)cc3Cl)C2)N1` [Example 246, 2-((3-chloro-5-(3-(1-(trifluoromethyl)cyclopropyl)phenyl)-2-thienyl)carbonyl)-2,5-diazaspiro[3.4]octan-6-one]: 100%.
Consider `O=C1CCC2(CN(C(=O)c3sc(-c4ccc(C5(C(F)(F)F)CC5)cc4)cc3Cl)C2)N1` [Example 247, 2-((3-chloro-5-(4-(1-(trifluoromethyl)cyclopropyl)phenyl)-2-thienyl)carbonyl)-2,5-diazaspiro[3.4]octan-6-one], for which the inhibition at 10 µM amounted to 100%.
As for `O=C1CCC2(CN(C(=O)c3sc(-c4cccc(OC(F)(F)F)c4)cc3Cl)C2)N1` [Example 248, 2-((3-chloro-5-(3-(trifluoromethoxy)phenyl)-2-thienyl)carbonyl)-2,5-diazaspiro[3.4]octan-6-one], the inhibition at 10 µM turned out to be 95%.
On to `O=C1CCC2(CN(C(=O)c3sc(-c4ccc(OC(F)(F)F)cc4)cc3Cl)C2)N1` [Example 249, 2-((3-chloro-5-(4-(trifluoromethoxy)phenyl)-2-thienyl)carbonyl)-2,5-diazaspiro[3.4]octan-6-one], for which the inhibition at 10 µM was determined as 93%.
Regarding `O=C1CCC2(CN(C(=O)c3cc4cc(Br)ccc4s3)C2)N1` [Example 250, 2-((5-bromo-1-benzothiophen-2-yl)carbonyl)-2,5-diazaspiro[3.4]octan-6-one], the inhibition at 10 µM came to 86%.
In the case of `O=C1CCC2(CN(C(=O)c3sc4cc(OC(F)(F)F)cc(F)c4c3Cl)C2)N1` [Example 251, 2-((3-chloro-4-fluoro-6-(trifluoromethoxy)-1-benzothiophen-2-yl)carbonyl)-2,5-diazaspiro[3.4]octan-6-one], the inhibition at 10 µM was 99%.
For `O=C1CCC2(CN(C(=O)c3cc4cc(OC(F)(F)F)ccc4s3)C2)N1` [Example 252, 2-((5-(trifluoromethoxy)-1-benzothiophen-2-yl)carbonyl)-2,5-diazaspiro[3.4]octan-6-one], the inhibition at 10 µM turned out to be 98%.
The same measure for `O=C1CCC2(CN(C(=O)c3sc4ccc(OC(F)(F)F)cc4c3Cl)C2)N1` [Example 253, 2-((3-chloro-5-(trifluoromethoxy)-1-benzothiophen-2-yl)carbonyl)-2,5-diazaspiro[3.4]octan-6-one]: 99%.
The same measure for `O=C1CCC2(CN(C(=O)c3sc4c(C(F)(F)F)cccc4c3Cl)C2)N1` [Example 255, 2-((3-chloro-7-(trifluoromethyl)-1-benzothiophen-2-yl)carbonyl)-2,5-diazaspiro[3.4]octan-6-one]: 99%.
For the compound `O=C1CCC2(CN(C(=O)c3sc4ccc(C(F)(F)F)cc4c3Cl)C2)N1` [Example 256, 2-((3-chloro-5-(trifluoromethyl)-1-benzothiophen-2-yl)carbonyl)-2,5-diazaspiro[3.4]octan-6-one], the inhibition at 10 µM worked out at 99%.
The same measure for `O=C1NC2(CO1)CN(C(=O)c1sc3c(C(F)(F)F)cccc3c1Cl)C2` [Example 257, 2-((3-chloro-7-(trifluoromethyl)-1-benzothiophen-2-yl)carbonyl)-7-oxa-2,5-diazaspiro[3.4]octan-6-one]: 100%.
